Data: ChEMBL document CHEMBL5506003, “Design and biological evaluation of dual tubulin/HDAC inhibitors based on millepachine for treatment of prostate cancer” (Eur J Med Chem, 2024)
Active and inactive are the calls of the source. No cut-off for these calls is given here.

Experiments:
[1] = test system: PC-3; test: Induction of mitochondrial membrane potential loss in human PC-3 cells assessed as increase in monomer JC-1 level by measuring green fluorescence intensity at 0.32 uM incubated for 24 hrs by JC-1 staining based flow cytometry analysis (reference value: 6.44%); format: functional
[2] = molecular target: T1, Protein deacetylase HDAC6 (Homo sapiens, UniProt Q9UBN7); test: Inhibition of HDAC6 in human HeLa nuclear extracts incubated for 30 mins by fluorescence based assay; format: cell-free
T1 sequence (Q9UBN7 whole entry): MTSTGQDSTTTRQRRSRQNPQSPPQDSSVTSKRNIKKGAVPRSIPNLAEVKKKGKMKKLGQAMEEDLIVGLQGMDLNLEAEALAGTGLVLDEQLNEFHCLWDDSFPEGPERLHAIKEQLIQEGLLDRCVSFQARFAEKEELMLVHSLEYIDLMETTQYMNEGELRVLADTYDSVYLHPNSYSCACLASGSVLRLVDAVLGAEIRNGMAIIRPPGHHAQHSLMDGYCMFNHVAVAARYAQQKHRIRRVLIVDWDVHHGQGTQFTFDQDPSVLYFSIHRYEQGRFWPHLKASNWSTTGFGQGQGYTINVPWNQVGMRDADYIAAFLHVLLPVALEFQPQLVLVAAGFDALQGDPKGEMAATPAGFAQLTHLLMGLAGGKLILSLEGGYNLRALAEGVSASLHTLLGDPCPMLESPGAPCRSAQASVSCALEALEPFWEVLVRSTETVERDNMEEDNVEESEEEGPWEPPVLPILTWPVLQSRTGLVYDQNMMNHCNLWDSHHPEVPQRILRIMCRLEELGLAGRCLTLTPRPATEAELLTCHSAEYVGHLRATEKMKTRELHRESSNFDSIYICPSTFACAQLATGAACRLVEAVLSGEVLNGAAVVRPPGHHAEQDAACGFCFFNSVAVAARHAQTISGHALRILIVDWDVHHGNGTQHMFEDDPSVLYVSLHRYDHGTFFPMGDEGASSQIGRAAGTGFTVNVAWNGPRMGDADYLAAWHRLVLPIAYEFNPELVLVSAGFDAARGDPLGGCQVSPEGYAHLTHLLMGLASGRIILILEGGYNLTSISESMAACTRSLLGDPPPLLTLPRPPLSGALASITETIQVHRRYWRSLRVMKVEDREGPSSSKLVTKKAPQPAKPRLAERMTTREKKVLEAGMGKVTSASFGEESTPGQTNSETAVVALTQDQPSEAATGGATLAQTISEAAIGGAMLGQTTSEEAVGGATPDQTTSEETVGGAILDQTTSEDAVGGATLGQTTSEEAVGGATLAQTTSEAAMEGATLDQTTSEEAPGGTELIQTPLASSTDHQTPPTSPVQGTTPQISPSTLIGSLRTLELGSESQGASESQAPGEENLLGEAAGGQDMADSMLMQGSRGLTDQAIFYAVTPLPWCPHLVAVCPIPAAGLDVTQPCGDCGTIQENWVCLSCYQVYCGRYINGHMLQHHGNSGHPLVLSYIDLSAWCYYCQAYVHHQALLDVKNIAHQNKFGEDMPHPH

[3] = test system: PC-3; test: Inhibition of colony formation in human PC-3 cells at 5 nM incubated for 24 hrs followed by replacement with fresh media and measured after 2 weeks by crystal violet staining based assay; format: functional, cell-based
[4] = test system: PC-3; test: Induction of cell cycle arrest in human PC-3 cells assessed as G2/M phase cells at 0.32 uM incubated for 24 hrs by PI staining based flow cytometry analysis (reference value: 12.83%); format: functional
[5] = test system: PC-3; test: Induction of cell cycle arrest in human PC-3 cells assessed as G2/M phase cells at 0.08 uM incubated for 24 hrs by PI staining based flow cytometry analysis (reference value: 12.83%); format: functional
[6] = test system: PC-3; test: Induction of cell cycle arrest in human PC-3 cells assessed as decrease in phosphorylated Cdc2 at […] by Western blotting analysis; format: functional, cell-based; settings: dose 0.08-0.32 µM
[7] = test system: PC-3; test: Induction of apoptosis in human PC-3 cells assessed as downregulation of Bcl-2 expression at 0.08 to 0.32 uM by Western blotting analysis; format: functional, cell-based; settings: dose 0.08-0.32 µM
[8] = test system: PC-3; test: Induction of mitochondrial membrane potential loss in human PC-3 cells assessed as decrease in JC-1 aggregate level by measuring red fluorescence intensity at 0.32 uM incubated for 24 hrs by JC-1 staining based flow cytometry analysis (reference value: 93.5%); format: functional; set-up: scale not given: the % may be the effect or the level left
[9] = test system: MCF7; test: Cytotoxicity against human MCF7 cells incubated for 72 hrs by MTT assay; settings: MCF7, 72 h
[10] = test system: PC-3; test: Induction of apoptosis in human PC-3 cells assessed as necrotic cells at 0.08 uM incubated for 24 hrs by Annexin V-FITC and PI staining based flow cytometry (reference value: 0.13%); format: functional
[11] = test system: PC-3; test: Induction of ROS generation in human PC-3 cells at 0.16 uM incubated for 24 hrs by DCFH-DA staining based flow cytometry analysis (reference value: 2.63%); format: functional
[12] = test system: PC-3; test: Induction of mitochondrial membrane potential loss in human PC-3 cells assessed as increase in monomer JC-1 level by measuring green fluorescence intensity at 0.16 uM incubated for 24 hrs by JC-1 staining based flow cytometry analysis (reference value: 6.44%); format: functional
[13] = test system: PC-3; test: Antitumor activity against human PC-3 cells xenografted in iv dosed BALB/c nude mouse assessed as tumor growth inhibition administered every 2 days and measured after 3 weeks; format: functional, organism-based; settings: dose 10-20 mg/kg
[14] = Toxicity in BALB/c nude mouse xenografted with human PC-3 cells assessed as lung damage at 10 to 20 mg/kg, iv administered every 2 days and measured after 3 weeks; format: organism-based; settings: in vivo, 504 h, dose 10-20 mg/kg
[15] = test system: PC-3; test: Induction of ROS generation in human PC-3 cells at 0.32 uM incubated for 24 hrs by DCFH-DA staining based flow cytometry analysis (reference value: 2.63%); format: functional
[16] = molecular target: Tubulin (Homo sapiens) (UniProt P68371+Q9H4B7+P0DPH7+P68366+Q13509+Q71U36+P04350+Q3ZCM7+P07437+P68363+Q9BQE3+Q6PEY2+Q13885+Q9BVA1+Q9BUF5); test: Inhibition of microtubule polymerization in human PC-3 cells assessed as fragmented microtubule filaments at 0.32 uM incubated for 6 hrs by immunofluorescent staining based confocal microscopy assay; format: cell-based
[17] = test system: PC-3; test: Induction of apoptosis in human PC-3 cells assessed as late apoptotic cells at 0.32 uM incubated for 24 hrs by Annexin V-FITC and PI staining based flow cytometry (reference value: 1.02%); format: functional
[18] = test system: PC-3; test: Induction of cell cycle arrest in human PC-3 cells assessed as G1 phase cells at 0.32 uM incubated for 24 hrs by PI staining based flow cytometry analysis (reference value: 56.17%); format: functional
[19] = molecular target: Histone deacetylase 3 (Homo sapiens) (UniProt O15379); test: Inhibition of HDAC3 in human PC-3 cells assessed as increase in acetylated Histone-H3 level incubated for 24 hrs by Western blotting assay; format: cell-based; settings: dose 0.08-0.32 µM
Chain of Histone deacetylase 3 (Homo sapiens) (O15379 whole entry): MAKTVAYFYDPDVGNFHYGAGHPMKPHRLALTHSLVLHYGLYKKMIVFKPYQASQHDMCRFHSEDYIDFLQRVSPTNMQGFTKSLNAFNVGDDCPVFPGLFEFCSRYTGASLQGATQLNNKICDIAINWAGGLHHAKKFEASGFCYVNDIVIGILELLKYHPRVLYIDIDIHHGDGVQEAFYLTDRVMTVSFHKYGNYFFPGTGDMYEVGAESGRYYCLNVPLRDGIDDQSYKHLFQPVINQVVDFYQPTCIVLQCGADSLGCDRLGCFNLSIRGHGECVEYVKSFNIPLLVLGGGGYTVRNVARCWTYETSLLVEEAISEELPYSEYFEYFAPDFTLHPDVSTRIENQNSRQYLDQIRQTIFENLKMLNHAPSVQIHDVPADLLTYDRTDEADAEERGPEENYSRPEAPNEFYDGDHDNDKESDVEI

[20] = test system: U-251; test: Cytotoxicity against human U-251 cells incubated for 72 hrs by MTT assay; settings: U-251, 72 h
[21] = test system: PC-3; test: Induction of apoptosis in human PC-3 cells assessed as necrotic cells at 0.32 uM incubated for 24 hrs by Annexin V-FITC and PI staining based flow cytometry (reference value: 0.13%); format: functional

## COc1ccc(/C=C/C(=O)c2ccc(OC)c3c2OC(C)(C)C=C3)cc1NCC(=O)NO
[1]
  Activity: 38.8%
[2]
  IC50: 620 nM
[3]
  inhibition: Active
[4]
  Activity: 82.04%
[5]
  Activity: 25.45%
[6]
  Activity: Active
[7]
  Activity: Active
[8]
  Activity: 58.9%
[9]
  IC50: 160 nM
[10]
  Activity: 0.041%
[11]
  Activity: 75.4%
[12]
  Activity: 20.7%
[13]
  Activity: Dose-Dependent Effect
[14]
  Activity: Non-Toxic
[15]
  Activity: 83.1%
[16]
  inhibition: Active
[17]
  Activity: 8.39%
[18]
  Activity: 6%
[19]
  inhibition: Dose-Dependent Effect
[20]
  IC50: 150 nM
[21]
  Activity: 0.19%
